US20240189254A1, “Xylitol Topical Ocular Solution” (GSX Pharma LLC, priority 2022, published 2024)
Like-named read-outs stand apart in the source and are kept apart here.

Tests used:
H. influenzae [1] = conditions: cited from earlier work
SARS-CoV-2 = conditions: in vitro, within minutes of application, lasting for hours; cited from earlier work
M. catarrhalis = conditions: 5% xylitol; cited from earlier work
[2] = in vivo; cited from earlier work
[3] = 8.4-10 g daily in five doses, 2-3 months follow-up, cited from earlier work
[4] = system: beta-haemolytic streptococci; conditions: 5% xylitol; cited from earlier work
H. influenzae [5] = conditions: 5% xylitol; cited from earlier work
S. pneumoniae [6] = conditions: cited from earlier work
Streptococcus sanguis = conditions: cited from earlier work
S. mutans [7] = conditions: cited from earlier work
S. pneumoniae [8] = conditions: glucose in the growth medium, cited from earlier work
Streptococcus salivarius = conditions: cited from earlier work
[9] = limited human studies of topical xylitol; assay type: in vivo; conditions: topical 4% to 7% xylitol, 2-5 times per day
[10] = system: Streptococcus pneumoniae strains; conditions: xylitol 0.5 to 5%; cited from earlier work
[11] = system: Acanthamoeba species cysts; test: PMN testing of Acanthamoeba species, xylitol with PHMB; assay type: cell-based; conditions: xylitol 6% to 20%
From the text: In PMN testing of a number of Acanthamoeba species, Xylitol in concentrations ranging from 6% to 20% has appeared to potentiate the acanthamoeba cysticidal effects of PHMB. In order for a disinfectant like PHMB to be cysticidal, it must gain access to the trophozoite internalized within the cyst. The most obvious route is via the ostioles or the pores in the double cell wall of the cyst that connect the outer exocyst and inner endocyst, thus allowing the internalized amoeba to communicate with its outside environment. It is believed that the mucopolysaccharides of the ostioles are altered by xylitol that enhance the binding by PHMB to allow […] penetration of the disinfectant.

S. mutans [12] = conditions: in spite of the presence of glucose or sucrose; cited from earlier work
[13] = system: Acanthamoeba trophozoites; conditions: 48 h of exposure; cited from earlier work
Acanthamoeba cysts = conditions: 48 h of exposure; cited from earlier work

Q: What does the source list for `OC[C@@H](O)[C@H](O)[C@@H](O)CO` [Xylitol]?
A: concentration sufficient to reduce adherence of H. influenzae to epithelial cells (H. influenzae [1]): 5%; reduction of virion concentrations (SARS-CoV-2): multiple log MAR reduction; growth of M. catarrhalis (M. catarrhalis): minimally affected; time until xylitol disappeared from the saliva [2]: ≤ 15 min; reduction of acute otitis media ([3]; chewing gum): approximately 40%; reduction of acute otitis media ([3]; oral xylitol syrup): approximately 30%; growth of beta-haemolytic streptococci [4]: more modestly impaired; growth of H. influenza (H. influenzae [5]): minimally affected; concentration sufficient to reduce adherence of S. pneumoniae to epithelial cells (S. pneumoniae [6]): 5%; effect on growth of Streptococcus sanguis (Streptococcus sanguis): modest by comparison, but still significant; concentration capable of reducing adherence of S. mutans (S. mutans [7]): 6%; inhibition of pneumococcal growth (S. pneumoniae [8]; 1% xylitol): 39%; inhibition of pneumococcal growth (S. pneumoniae [8]; 5% xylitol solution): 72%; effect on growth of Streptococcus salivarius (Streptococcus salivarius): modest by comparison, but still significant; corneal SPK [9]: reduce; symptoms and inflammation (imaging of retro-palpebral and ocular surface mucosa, Meibomian gland obstruction) [9]: improve; adherence on epithelial cells [10]: did not diminish significantly; effect on acanthamoeba cysticidal effects of PHMB [11]: potentiate; growth of S. mutans (S. mutans [12]): markedly reduced

Q: What does the source list for Polyhexamethylene Biguanide [PHMB]?
A: minimum trophozoite amoebicidal concentration (MTAC) [13]: 1 g/mL; minimum cysticidal concentration (MCC) (Acanthamoeba cysts): 3 g/mL
